In experiment [1] the target is T1, Serine/threonine-protein kinase pim-3 (Homo sapiens, UniProt Q86V86). The experiment can be described thus: Inhibition of full-length human PIM3 using RSRHSSYPAGT as substrate assessed as residual kinase activity after 30 mins in presence of [gamma-33P]ATP.
Experiment [2] addresses T2, Serine/threonine-protein kinase pim-1 (Homo sapiens, UniProt P11309). Briefly: Inhibition of full-length human PIM1 using RSRHSSYPAGT as substrate assessed as residual kinase activity at 1 uM after 30 mins in presence of [gamma-33P]ATP.
Target sequence in this assay (P11309 whole entry, looked up): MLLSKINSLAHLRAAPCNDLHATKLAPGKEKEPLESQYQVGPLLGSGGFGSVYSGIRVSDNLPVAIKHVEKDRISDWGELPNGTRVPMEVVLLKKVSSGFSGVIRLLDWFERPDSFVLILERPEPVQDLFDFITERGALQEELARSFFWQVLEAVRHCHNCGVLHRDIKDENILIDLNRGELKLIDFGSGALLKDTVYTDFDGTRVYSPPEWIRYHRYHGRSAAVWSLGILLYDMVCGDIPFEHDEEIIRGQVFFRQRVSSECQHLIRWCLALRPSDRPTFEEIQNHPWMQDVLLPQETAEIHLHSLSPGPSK
In experiment [3] the target is T1, Serine/threonine-protein kinase pim-3. Briefly: Inhibition of full-length human PIM3 using RSRHSSYPAGT as substrate assessed as residual kinase activity at 1 uM after 30 mins in presence of [gamma-33P]ATP.
A further experiment has as its system LNCaP. Briefly: Antiproliferative activity against human LNCAP cells at 10 uM after 72 hrs by MTS assay. The format is functional. (In general: Tetrazolium dyes change colour on reduction, which living cells bring about.)
Experiment [4] deals with Serine/threonine-protein kinase pim-2 (Homo sapiens) (UniProt Q9P1W9). Briefly: Inhibition of full-length human PIM2 using RSRHSSYPAGT as substrate assessed as residual kinase activity at 10 uM after 30 mins in presence of [gamma-33P]ATP.
For experiment [5] the target is unchanged. The experiment can be described thus: Inhibition of full-length human PIM2 using RSRHSSYPAGT as substrate assessed as residual kinase activity at 1 uM after 30 mins in presence of [gamma-33P]ATP.
Experiment [6] can be described thus: Antiproliferative activity against human PC3 cells after 72 hrs by MTS assay. It counts as functional, cell-based. The conditions noted are these: PC-3, 72 h.
In experiment [7] the target is T1, Serine/threonine-protein kinase pim-3. Briefly: Inhibition of full-length human PIM3 using RSRHSSYPAGT as substrate assessed as residual kinase activity at 10 uM after 30 mins in presence of [gamma-33P]ATP.
Experiment [8] deals with T2, Serine/threonine-protein kinase pim-1. The experiment can be described thus: Inhibition of full-length human PIM1 using RSRHSSYPAGT as substrate assessed as residual kinase activity at 10 uM after 30 mins in presence of [gamma-33P]ATP.
Target sequence in this assay (P11309 whole entry, looked up): as the sequence (P11309 whole entry, looked up) above
Experiment [9] in a line: Antiproliferative activity against human PC3 cells at 10 uM after 72 hrs by MTS assay. It counts as functional. The conditions noted are these: PC-3, 72 h.
Experiment [10] deals with T2, Serine/threonine-protein kinase pim-1. Briefly: Inhibition of full-length human PIM1 using RSRHSSYPAGT as substrate assessed as residual kinase activity after 30 mins in presence of [gamma-33P]ATP.
Target sequence in this assay (P11309 whole entry): as the sequence (P11309 whole entry, looked up) above

Serine/threonine-protein kinase pim-2 (Homo sapiens), sequence (Q9P1W9 whole entry, looked up): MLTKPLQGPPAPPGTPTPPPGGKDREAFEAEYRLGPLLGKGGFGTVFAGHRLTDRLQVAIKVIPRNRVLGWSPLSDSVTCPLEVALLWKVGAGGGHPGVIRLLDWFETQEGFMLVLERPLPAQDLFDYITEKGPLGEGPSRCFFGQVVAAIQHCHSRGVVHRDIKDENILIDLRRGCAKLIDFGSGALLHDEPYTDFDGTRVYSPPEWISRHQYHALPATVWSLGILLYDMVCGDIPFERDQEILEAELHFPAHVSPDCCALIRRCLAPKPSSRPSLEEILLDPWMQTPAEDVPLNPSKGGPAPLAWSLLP

As a reminder, the IC50 is the concentration needed to halve the response being measured. One may read the inhibition as the relative decrease from the control value, in per cent. A high value points to strong suppression. As to `O=[N+]([O-])c1cc2[nH]ncc2c2c1ncc1cc3c(cc12)OCO3`, the IC50 in experiment [1] was determined as 400 nM; in experiment [6], 5000 nM. For the same compound, the Activity amounted to 53% in experiment [2]; 18.9% in experiment [3]; 54% in experiment [4]; 92% in [5]; 7% in experiment [7]; 15.8% in experiment [8]. Further, the figures for the inhibition at 10 µM (in the experiment with LNCaP; in [9]) were 54% and 60%, respectively.
On to `O=[N+]([O-])c1cc2[nH]ncc2c2c1ncc1ccccc12`, for which the IC50 worked out at 20 nM in experiment [1], 70 nM in experiment [10] and 2460 nM in experiment [6]. In addition, the Activity stood at 16% in [2]; 6% in experiment [3]; 8.1% in experiment [4]; 46% in [5]; 0.9% in experiment [7]; 2.2% in [8]. In addition, the inhibition at 10 µM turned out to be 54% with LNCaP and 68% in [9].
`O=[N+]([O-])c1cc2[nH]ncc2c2c1ncc1ccc(Cl)cc12`: the values for the IC50 in experiment [1] and in experiment [6] were 200 nM and 3000 nM, respectively. The Activity came out at 28% in experiment [2]; 8.9% in [3]; 47% in [4]; 83% in experiment [5]; 4% in experiment [7]; 9% in experiment [8]. For the same compound, the inhibition at 10 µM with LNCaP was found to be 31%; in [9], 75%.
In the case of `COc1ccc2c(cnc3c(N)cc4[nH]ncc4c32)c1`, the Activity in experiment [2] came out at 96%; in experiment [3], 60%; in experiment [4], 84%; in experiment [5] it was 100%; in experiment [7] it was 16.5%; in experiment [8] it was 35%.
For `COc1ccc2c(cnc3c([N+](=O)[O-])cc4[nH]ncc4c32)c1`, the IC50 in experiment [1] came to 140 nM; in experiment [10], 120 nM; in experiment [6], 1100 nM. Moreover, the Activity was 20% in experiment [2]; 8% in [3]; 55% in [4]; 64% in experiment [5]; 5.5% in [7]; 15% in experiment [8]. Besides, the values for the inhibition at 10 µM (in the experiment with LNCaP; in experiment [9]) were 40% and 73%, respectively.
Take `c1ccc2c(c1)cnc1ccc3[nH]ncc3c12`: the Activity in [2] was found to be 44%; in [3], 98%; in [4], 38%; in [5] it was 84.6%; in experiment [7], 47%; in [8], 11%.
For `Nc1cc2[nH]ncc2c2c1ncc1c(F)cccc12`, the Activity stood at 90% in experiment [2]; 42% in experiment [3]; 76% in experiment [4]; 110% in experiment [5]; 7.9% in [7]; 16% in [8].
As for `O=[N+]([O-])c1cc2[nH]ncc2c2c1ncc1c(F)cccc12`, in experiment [1], the IC50 was found to be 169 nM. For the same compound, the Activity turned out to be 46% in experiment [2]; 14% in experiment [3]; 66% in experiment [4]; 84% in experiment [5]; 6.7% in [7]; 19% in experiment [8]. Moreover, the inhibition at 10 µM with LNCaP came out at 46%; in [9], 37%.
Regarding `Nc1cc2[nH]ncc2c2c1ncc1ccccc12`, the Activity came to 55% in [2]; 55% in experiment [3]; 43% in experiment [4]; 86% in experiment [5]; 24% in experiment [7]; 17% in experiment [8].
For `Nc1cc2[nH]ncc2c2c1ncc1ccc(Cl)cc12`, the Activity was 88% in experiment [2]; 50% in [3]; 57% in experiment [4]; 96% in experiment [5]; 10.5% in experiment [7]; 18% in experiment [8].

The values above are taken from ChEMBL document CHEMBL3352653, “Synthesis of pyrazolo[4,3-a]phenanthridines, a new scaffold for Pim kinase inhibition” (Bioorg Med Chem, 2014).
